# According to PubChem BioAssay (NCI):
#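 Growth conditions: 96-well plates. Treatment: test compound, 48 hours, 5 concentrations. Analysis: linear interpolation between bracketing concentrations; unreached endpoints set to highest concentration. The concentration for 50% growth inhibition is given as GI50. TGI denotes the concentration required for complete inhibition of growth.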
# Experiments:
# Assay in all cases: DTP human tumour cell line panel, 48 h
# SF-295 CNS = test system: SF-295 CNS
# TK-10 renal = test system: TK-10 renal
# HCT-116 colon = test system: HCT-116 colon
# K-562 leukemia = test system: K-562 leukemia
# NCI-H23 lung = test system: NCI-H23 lung
# SNB-19 CNS = test system: SNB-19 CNS
# HOP-92 NSCLC = test system: HOP-92 NSCLC
# HL-60(TB) leukemia = test system: HL-60(TB) leukemia
# U251 CNS = test system: U251 CNS
# OVCAR-8 ovarian = test system: OVCAR-8 ovarian
# OVCAR-5 ovarian = test system: OVCAR-5 ovarian
# UACC-62 melanoma = test system: UACC-62 melanoma
# HCC-2998 colon = test system: HCC-2998 colon
# HS 578T breast = test system: HS 578T breast
# CAKI-1 renal = test system: CAKI-1 renal
# MDA-MB-231 breast = test system: MDA-MB-231 breast
# NCI-H460 lung = test system: NCI-H460 lung
# RPMI-8226 leukemia = test system: RPMI-8226 leukemia
# SK-MEL-2 melanoma = test system: SK-MEL-2 melanoma
# A498 renal = test system: A498 renal
# T-47D breast = test system: T-47D breast
# PC-3 prostate = test system: PC-3 prostate
# MCF7 breast = test system: MCF7 breast
# EKVX NSCLC = test system: EKVX NSCLC
# NCI/ADR-RES ovarian = test system: NCI/ADR-RES ovarian
# OVCAR-3 ovarian = test system: OVCAR-3 ovarian
# NCI-H522 lung = test system: NCI-H522 lung
# IGROV1 ovarian = test system: IGROV1 ovarian
# NCI-H226 lung = test system: NCI-H226 lung
# SF-539 CNS = test system: SF-539 CNS
# LOX IMVI melanoma = test system: LOX IMVI melanoma
# CCRF-CEM leukemia = test system: CCRF-CEM leukemia
# MOLT-4 leukemia = test system: MOLT-4 leukemia
# MDA-MB-435 = test system: MDA-MB-435
# SW-620 colon = test system: SW-620 colon
# HOP-62 NSCLC = test system: HOP-62 NSCLC
# M14 melanoma = test system: M14 melanoma
# BT-549 breast = test system: BT-549 breast
# OVCAR-4 ovarian = test system: OVCAR-4 ovarian
# SK-OV-3 ovarian = test system: SK-OV-3 ovarian
# MALME-3M melanoma = test system: MALME-3M melanoma
# MDA-MB-468 breast = test system: MDA-MB-468 breast
# 786-0 renal = test system: 786-0 renal
# UACC-257 melanoma = test system: UACC-257 melanoma
# SF-268 CNS = test system: SF-268 CNS
# SNB-75 CNS = test system: SNB-75 CNS
# COLO 205 colon = test system: COLO 205 colon
# ACHN renal = test system: ACHN renal
# A549 NSCLC = test system: A549 NSCLC
# UO-31 renal = test system: UO-31 renal
# SK-MEL-28 melanoma = test system: SK-MEL-28 melanoma
# DU-145 prostate = test system: DU-145 prostate
# KM12 colon = test system: KM12 colon
# SR leukemia = test system: SR leukemia
# HCT-15 colon = test system: HCT-15 colon
# SK-MEL-5 melanoma = test system: SK-MEL-5 melanoma
# SN12C renal = test system: SN12C renal
# RXF 393 renal = test system: RXF 393 renal
# HT29 colon = test system: HT29 colon
compound,measurement,setting,value
CS(=O)(=O)Nc1cc(-c2ccc3ncnc(Nc4ccc(OCc5cccnc5)c(Cl)c4)c3c2)cnc1Cl,GI50,SF-295 CNS,2370 nM
same,TGI,SF-295 CNS,12100 nM
same,GI50,TK-10 renal,714 nM
same,TGI,TK-10 renal,5510 nM
same,GI50,HCT-116 colon,1690 nM
same,TGI,HCT-116 colon,4550 nM
same,GI50,K-562 leukemia,1850 nM
same,TGI,K-562 leukemia,32400 nM
same,GI50,NCI-H23 lung,1370 nM
same,TGI,NCI-H23 lung,5330 nM
same,GI50,SNB-19 CNS,1150 nM
same,TGI,SNB-19 CNS,9240 nM
same,GI50,HOP-92 NSCLC,183 nM
same,TGI,HOP-92 NSCLC,1970 nM
same,GI50,HL-60(TB) leukemia,335 nM
same,TGI,HL-60(TB) leukemia,10300 nM
same,GI50,U251 CNS,917 nM
same,TGI,U251 CNS,4650 nM
same,GI50,OVCAR-8 ovarian,2560 nM
same,TGI,OVCAR-8 ovarian,20500 nM
same,GI50,OVCAR-5 ovarian,2240 nM
same,TGI,OVCAR-5 ovarian,18000 nM
same,GI50,UACC-62 melanoma,419 nM
same,TGI,UACC-62 melanoma,2320 nM
same,GI50,HCC-2998 colon,1590 nM
same,TGI,HCC-2998 colon,5220 nM
same,GI50,HS 578T breast,196 nM
same,TGI,HS 578T breast,1700 nM
same,GI50,CAKI-1 renal,935 nM
same,TGI,CAKI-1 renal,6450 nM
same,GI50,MDA-MB-231 breast,960 nM
same,TGI,MDA-MB-231 breast,3050 nM
same,GI50,NCI-H460 lung,3580 nM
same,TGI,NCI-H460 lung,21400 nM
same,GI50,RPMI-8226 leukemia,2050 nM
same,TGI,RPMI-8226 leukemia,6800 nM
same,GI50,SK-MEL-2 melanoma,901 nM
same,TGI,SK-MEL-2 melanoma,2700 nM
same,GI50,A498 renal,1840 nM
same,TGI,A498 renal,6490 nM
same,GI50,T-47D breast,150 nM
same,TGI,T-47D breast,1470 nM
same,GI50,PC-3 prostate,1660 nM
same,TGI,PC-3 prostate,14300 nM
same,GI50,MCF7 breast,410 nM
same,TGI,MCF7 breast,8330 nM
same,GI50,EKVX NSCLC,970 nM
same,TGI,EKVX NSCLC,6250 nM
same,GI50,NCI/ADR-RES ovarian,32700 nM
same,TGI,NCI/ADR-RES ovarian,> 100000 nM
same,GI50,OVCAR-3 ovarian,700 nM
same,TGI,OVCAR-3 ovarian,3480 nM
same,GI50,NCI-H522 lung,641 nM
same,TGI,NCI-H522 lung,4390 nM
same,GI50,IGROV1 ovarian,231 nM
same,TGI,IGROV1 ovarian,1090 nM
same,GI50,NCI-H226 lung,1430 nM
same,TGI,NCI-H226 lung,10300 nM
same,GI50,SF-539 CNS,852 nM
same,TGI,SF-539 CNS,3500 nM
same,GI50,LOX IMVI melanoma,792 nM
same,TGI,LOX IMVI melanoma,2730 nM
same,GI50,CCRF-CEM leukemia,801 nM
same,TGI,CCRF-CEM leukemia,> 37900 nM
same,GI50,MOLT-4 leukemia,465 nM
same,TGI,MOLT-4 leukemia,4910 nM
same,GI50,MDA-MB-435,1160 nM
same,TGI,MDA-MB-435,9240 nM
same,GI50,SW-620 colon,1900 nM
same,TGI,SW-620 colon,10900 nM
same,GI50,HOP-62 NSCLC,1560 nM
same,TGI,HOP-62 NSCLC,40900 nM
same,GI50,M14 melanoma,1510 nM
same,TGI,M14 melanoma,13800 nM
same,GI50,BT-549 breast,379 nM
same,TGI,BT-549 breast,2220 nM
same,GI50,OVCAR-4 ovarian,4910 nM
same,TGI,OVCAR-4 ovarian,90400 nM
same,GI50,SK-OV-3 ovarian,1490 nM
same,TGI,SK-OV-3 ovarian,7140 nM
same,GI50,MALME-3M melanoma,271 nM
same,TGI,MALME-3M melanoma,2130 nM
same,GI50,MDA-MB-468 breast,208 nM
same,TGI,MDA-MB-468 breast,962 nM
same,GI50,786-0 renal,1810 nM
same,TGI,786-0 renal,11100 nM
same,GI50,UACC-257 melanoma,1620 nM
same,TGI,UACC-257 melanoma,12600 nM
same,GI50,SF-268 CNS,835 nM
same,TGI,SF-268 CNS,10400 nM
same,GI50,SNB-75 CNS,139 nM
same,TGI,SNB-75 CNS,4370 nM
same,GI50,COLO 205 colon,1410 nM
same,TGI,COLO 205 colon,3590 nM
same,GI50,ACHN renal,4450 nM
same,TGI,ACHN renal,> 48800 nM
same,GI50,A549 NSCLC,7760 nM
same,TGI,A549 NSCLC,25100 nM
same,GI50,UO-31 renal,1680 nM
same,TGI,UO-31 renal,20300 nM
same,GI50,SK-MEL-28 melanoma,652 nM
same,TGI,SK-MEL-28 melanoma,8640 nM
same,GI50,DU-145 prostate,2740 nM
same,TGI,DU-145 prostate,21500 nM
same,GI50,KM12 colon,3820 nM
same,TGI,KM12 colon,15200 nM
same,GI50,SR leukemia,746 nM
same,TGI,SR leukemia,> 20600 nM
same,GI50,HCT-15 colon,2840 nM
same,TGI,HCT-15 colon,17000 nM
same,GI50,SK-MEL-5 melanoma,617 nM
same,TGI,SK-MEL-5 melanoma,1930 nM
same,GI50,SN12C renal,904 nM
same,TGI,SN12C renal,11300 nM
same,GI50,RXF 393 renal,367 nM
same,TGI,RXF 393 renal,2440 nM
same,GI50,HT29 colon,1950 nM
same,TGI,HT29 colon,13200 nM
